# Test results from patent publication US9144569B2, “Methods of administering an aromatase inhibitor, prostaglandin and GnRH for regulating ovulation in cattle” (UNIVERSITY OF SASKATCHEWAN, priority 2010, dated 2015).
# Marks after values point to notes of the source that are not given here.
# Tests used:
# [1] = tested on: Hereford-cross beef heifers; assay: Example II: 3-day letrozole regimen in heifers, ovarian ultrasonography; assay type: in vivo, cattle; settings: for Inter-ovulatory interval / Inter-wave interval: 85 μg/kg/day iv; for Inter-wave interval: mean±SEM
# Experimental: Hereford-cross beef heifers, 14 to 20 months of age and weighing between 233 and 404 kg, were chosen from a herd of 50 animals maintained in outdoor corrals at the University of Saskatchewan Goodale Research Farm (52° North and 106° West). Heifers were fed alfalfa/grass hay and grain to gain approximately 1.3 kg per day and had water ad libitum during the experimental period from May to July. Heifers were initially examined by transrectal ultrasonography (7.5 MHz linear-array transducer, Aloka SSD-900; Tokyo, Japan) to confirm that they were postpubertal by the presence of a CL [33].
# (§1) Four days after follicular ablation, heifers were given 500 μg of cloprostenol (PGF, Estrumate, Schering-Plough Animal Health, Pointe-Claire, QC, Canada) intramuscularly (im) to induce regression of the CL and to synchronize ovulation. The experiment was performed in two replicates (n=20-27 per replicate) and each heifer was used only once. In replicate 1, heifers were assigned randomly at the time of ovulation (Day 0) to the following groups and given a 3-day regimen of letrozole from Days 1 to 3 (n=5), Days 3 to 5 (n=5), Days 5 to 7 (n=5), or no treatment (control group, n=5). In replicate 2, heifers were similarly assigned to groups and given letrozole from Days 1 to 3, (n=5), Days 3 to 5 (n=4), or Days 5 to 7 (n=4), but untreated control heifers were arranged in three sub-groups to serve as contemporaneous controls for each letrozole-group during intensive blood sampling periods (i.e., control Days 1 to 3, n=4; control Days 3 to 5, n=4; and control Days 5 to 7, n=5). For practical purposes, the total dose of letrozole (250 μg/kg) was calculated on the basis of an average weight of 350 kg for all heifers and administered intravenously in daily divided doses over 3 days (85 μg/kg per day). For intravenous injection, letrozole was prepared in 95% ethanol to a final concentration of 5 mg/ml, resulting in an injection volume of 6 mL/day.
# Ultrasound examinations were recorded on a sketch sheet in which each ovary and its structures (CL [37] and follicles ≧4 mm in diameter) were represented in size and relative location. Ovulation was defined as the disappearance of any follicle ≧8 mm between two consecutive daily examinations, and was confirmed by the subsequent development of a CL [39]. Follicular wave emergence was defined retrospectively as the day when the dominant follicle was first identified at a diameter of 4 or 5 mm. If the dominant follicle was not identified until it reached 6 or 7 mm, the previous day was considered the day of follicular wave emergence. The dominant follicle of a wave was defined as the largest antral follicle of that wave after deviation, and the first subordinate follicle as the second largest antral follicle originated from the same wave. The day of onset of follicular and luteal regression was defined as the first day of an apparent constant decrease in follicular and luteal diameters, respectively.
# Statistical analyses were done using the Statistical Analysis System software package (SAS Learning Edition 9.1, 2006; SAS Institute Inc., Cary, N.C., USA). Time-series hormone data, plasma letrozole concentration, and follicular and luteal diameter profiles were analysed by repeated measures, using the PROC MIXED procedure. The main effects were treatment, time, and their interactions. […] Single point measurements (interwave and interovulatory intervals, interval from ovulation to onset of CL regression, mean and basal LH concentrations, LH pulse amplitude and frequency, and pharmacokinetic parameters for letrozole) were analysed by analysis of variance. […] If significant main effects or interactions (P≦0.05) were detected, Tukey's post-hoc test was used for multiple comparisons.
# plasma progesterone [2] = assay: Example II: plasma progesterone, 3-day letrozole regimen; assay type: in vivo, cattle; settings: 3-day regimen, groups combined; numerically higher
# Experimental: as §1, with “For intravenous injection, letrozole was prepared in 95% ethanol to a final concentration of 5 mg/ml, resulting in an injection volume of 6 mL/day.” left out
# Plasma progesterone concentrations were determined in duplicate using a commercial solid-phase kit (Coat-A-Count; Diagnostic Products Corporation, Los Angeles, Calif., USA). […]
# heifers = assay: Example III: letrozole 1 mg/kg intravenously or intramuscularly in heifers, ovarian ultrasonography; assay type: in vivo, cattle; settings: for Interwave Interval / Interovulatory Interval: mean±SEM
# Experimental: (§2) Ovarian cyclicity in heifers was synchronized using transvaginal ultrasound-guided follicular ablation followed by a double dose of PGF 4 days after ablation. The ovaries were examined daily by transrectal ultrasonography to detect ovulation. Three days after ovulation, heifers were assigned randomly to four treatment groups and given letrozole at a dose of 1 mg/kg intravenously (in benzyl alcohol, n=10) or intramuscularly (in benzyl alcohol plus canola oil 1:1 v/v, n=10), or given a placebo intravenously (benzyl alcohol, n=5) or intramuscularly (benzyl alcohol plus canola oil 1:1 v/v, n=5). Ovarian structures were monitored by ultrasonography and blood samples were collected by jugular venipuncture twice daily from pre-treatment to post-treatment ovulations. Comparisons among groups were made by one-way ANOVA for single-point measurements and by ANOVA for repeated measures for time-series data.
# Transrectal ultrasonography: daily from PGF treatment to the first ovulation post-treatment.
# (§3) Endpoints are: Follicular diameter profiles; CL diameter profile; Circulating progesterone concentration; Circulating FSH and LH profiles; Letrozole profile and bioavailability; Circulating estradiol concentration Follicular fluid estradiol concentration).
# plasma progesterone [3] = assay: Example III: plasma progesterone after letrozole IM; assay type: in vivo, cattle; settings: 1 mg/kg IM; P<0.06
# Experimental: as §2
# (§4) Blood samples collected daily from treatment to post-treatment ovulation.
# as §3
# plasma LH = assay: Example III: plasma LH after letrozole IV or IM; assay type: in vivo, cattle; settings: 1 mg/kg IV or IM vs placebo
# Experimental: as §2, §4, §3
# circulating estradiol = settings: post-menopausal women [30]; cited from earlier work
smiles,measurement,setting,value
"N#Cc1ccc(C(c2ccc(C#N)cc2)n2cncn2)cc1 [Letrozole, letrozole]",Inter-ovulatory interval,"[1]; Days 1 to 3, n=10",20.9 ± 0.46^a days
same,Inter-wave interval,"[1]; Days 1 to 3, n=10",8.9 ± 0.35^a days
same,Inter-ovulatory interval,"[1]; Days 3 to 5, n=9",20.1 ± 0.49^a days
same,Inter-wave interval,"[1]; Days 3 to 5, n=9",10.0 ± 0.37^ab days
same,Inter-ovulatory interval,"[1]; Days 5 to 7, n=9",21.2 ± 0.49^a days
same,Inter-wave interval,"[1]; Days 5 to 7, n=9",10.7 ± 0.37^b days
same,Inter-wave interval,"[1]; Days 5 to 7, n=9, listed as letrozole",10.7 days
same,growth of the extant dominant follicle compared to controls,"[1]; 3-day regimen, treatment groups combined (n=28) vs untreated, P<0.01",grew longer and to a greater diameter
same,diameter profile of the largest subordinate follicle compared to controls,"[1]; treated Days 1 to 3, P<0.05",larger
same,diameter profile of the largest subordinate follicle compared to controls,[1]; treated Days 3 to 5,intermediate
same,diameter profile of the largest subordinate follicle compared to controls,[1]; treated Days 5 to 7,intermediate
same,differences in plasma progesterone concentrations vs control,plasma progesterone [2],not significant
same,Interwave Interval,heifers; 1 mg/kg IM in benzyl alcohol plus canola oil,11.7 ± 0.34^b Days
same,Interwave Interval,"heifers; 1 mg/kg IM in benzyl alcohol plus canola oil, listed as letrozole",11.7 days
same,day-to-day diameter profile of the corpus luteum vs IM controls,"heifers; 1 mg/kg IM, P<0.05",larger
same,Interovulatory Interval,heifers; 1 mg/kg IM,19.7 ± 0.83 days
same,Interwave Interval,heifers; 1 mg/kg IV in benzyl alcohol,"10.6 ± 0.30^a,b Days"
same,Interwave Interval,"heifers; 1 mg/kg IV in benzyl alcohol, listed as letrozole",10.6 days
same,day-to-day diameter profile of the dominant follicle among groups,"heifers; 1 mg/kg IV or IM vs placebo, Day 3 after ovulation",not different
same,Interovulatory Interval,heifers; 1 mg/kg IV,18.9 ± 0.70 days
same,plasma progesterone concentrations vs IM controls,plasma progesterone [3],tended to be higher
same,plasma LH concentrations among groups,plasma LH,did not differ
same,reduction in circulating estradiol concentrations,circulating estradiol,97-99%
